Assay results: patent US9709557B2, “Anthraquinone based near IR emitting compounds and uses thereof” (LIFE TECHNOLOGIES CORPORATION, priority 2008, dated 2017)

Legend:
Live Jurkat cells [1] = assay: DNA staining of live cells treated with RNase (Example 37); type: cell-based, human; details: 5 μM and 10 μM, 37° C. or room temperature, 30 min
Protocol: Live Jurkat cells (human T-lymphocyte) were stained with Compound 9 with and without RNase treatment to assess DNA selectivity of the compound. Live Jurkat cells were suspended at 5×10^5 cells/ml in each RPMI media with 10% FBS. The dye was added to each of one mL cell suspensions at concentrations 5 μM and 10 μM. Duplicate conditions (dye concentration and incubation temperature) were tested. RNase was added to one test and incubated along with the dye. The other test was left untreated (no RNase present). The samples were incubated at 37° C. or room temperature for 30 minutes while protected from light. Cells were run through a Becton Dickinson (BD) LSRII Flow Cytometer, as described in Example 36.

Live Jurkat cells [2] = assay: DNA staining of live cells (diluted samples), cell cycle analysis by flow cytometry (Example 38); type: cell-based, human
Protocol: Aliquots of a compound of the invention (e.g., Compound 9 or a salt thereof) are diluted to a concentration of 5 mM in de-ionized water (DI) or in DMSO. Live Jurkat cells are suspended at 5×10^5 cells/ml in each RPMI media with 10% FBS. Compound from each solution (DI and DMSO) is added to each of one mL cell suspensions at a concentration 5 μM and then incubated at 37° C. for 30 minutes while protected from light. Cells are run through a Becton Dickinson (BD) LSRII Flow Cytometer. Forward Scatter (FS) versus Side Scatter (SS) dual parameter plot is used to gate main cell population. Fluorescence is collected using two lasers: the 488 nm excitation laser with 695/40, and 780/60 bandpass emission filter, and using the 633 nm excitation laser with 780/60, 710/50, and 660/20 bandpass emission filters. Fluorescence is also collected with the 488 nm laser and the 530/30 and 575/26 bandpass emission filters to observe for any fluorescence spillover in these detectors. Collection of at least 10,000 events is performed at a flow rate of ˜200 events/second. The data is analyzed to evaluate the ratio of G2/G1 and the % CV of G1 phase, as described herein. Compound 9 was evaluated using the described procedures and was effective as a DNA stain for use in DNA cell cycle analysis. The compound was excited by both lasers with emission in the far red and near-IR regions of the spectrum. […] Table 2 summarizes data for live Jurkat cells suspended in RPMI media+10% FBS treated with 5 μM Compound 9 (as a 5 mM DMSO or DI solution).

Live Jurkat cells [3] = assay: Evaluation of cell health after DNA staining, ImageStream imaging flow cytometer (Example 39); type: cell-based; details: 5 μM, 37° C., 30 min
Description: An ImageStream multispectral imaging flow cytometer is used to evaluate the live, apoptotic and mitotic rate of cycling Jurkat cells labeled with a compound of the invention (e.g., Compound 9 or a salt thereof). The platform produces high resolution brightfield, darkfield, and fluorescence images of cells prepared in suspension. IDEA analysis software I is used to quantify morphometric and photometric parameters for each cell based on the imaged collected. This technology combines the quantitative power of large sample sizes common to flow cytometry with the high information content present in microscopic images.
Live Jurkat cells are suspended at 5×10^5 cells/ml in each RPMI media with 10% FBS. The compound (in 5 mM DMSO) is added at a concentration of 5 μM and then the cells are incubated at 37° C. for 30 minutes while protected from light before acquiring on the ImageStream cytometer using 658 nm excitation and >660 nm emission. Apoptotic, mitotic, and interphase Jurkat cells are distinguished from each other using a combination of scatter, DNA intensity, and morphology-based parameters. Apoptotic cells with high laser scatter properties are gated on the Mean Pixel SSC histogram. Low scatter apoptotic events with low DNA content or textured nuclei are identified on the dye intensity versus bright detail intensity plot. […]

[4] = tested on: Jurkat cells fixed in 70% cold ethanol; assay: Staining of fixed cells, DNA content cell cycle by flow cytometry (Example 41); type: cell-based, human; details: 5 μM, PBS, room temperature 30 min
Protocol: Live Jurkat cells are fixed 70% cold ethanol and stored at −20° C. for one month. The cells are the washed in phosphate buffered saline (PBS) and resuspended in PBS at 5×10^5 cells/ml. Cells are labeled with a 5 μM solution of a compound according to the invention (e.g., Compound 9 or a salt thereof) at room temperature for 30 minutes and then run through two flow cytometers: A BD LSRII using 488 nm excitation and 695/40 nm emission and an Accuri C6 using 488 nm excitation and >670 nm emission, collecting 10,000 events at low flow rate. Markers are placed on the G0G1 and G2M peaks to look at % CV of the G0G1 peak and the ratio of G2M/G0G1.

[5] = Accuri C6, 488 nm excitation, >670 nm
[6] = BD LSRII, 488 nm excitation, 695/40

In the case of `CN(C)CCNC(=O)CNc1ccc(O)c2c1C(=O)c1c(O)ccc(N)c1C2=O` [Compound 9], the “DNA selectivity, staining with and without RNase” value (Live Jurkat cells [1]) is reported as “DNA selective”, the G2/G1 ratio (Live Jurkat cells [2]; 5 μM from 5 mM DI solution, 488 + 695/40) is reported as 1.89 and the G2/G1 ratio (Live Jurkat cells [2]; 5 μM from 5 mM DI solution, 633 + 710/50) is reported as 1.85. For the same molecule, the G2/G1 ratio (Live Jurkat cells [2]; 5 μM from 5 mM DMSO solution, 488 + 695/40) was 1.88, the G2/G1 ratio (Live Jurkat cells [2]; 5 μM from 5 mM DMSO solution, 633 + 710/50) was 1.85 and the “% CV of G1-phase” value (Live Jurkat cells [2]; 5 μM, all samples and conditions, MODFIT) was < 8%. For the same molecule, the “cells dead following incubation with the dye” value (Live Jurkat cells [3]) was 7.1%, the “mitotic cells as share of the live cell population” value (Live Jurkat cells [3]) was 1.9% and the “% CV of the G0G1 peak” value [4, 5] was 5.9%. The “ratio of G2M/G0G1” value [4, 5] was 1.85, the “% CV of the G0G1 peak” value [4, 6] was 6.0% and the “ratio of G2M/G0G1” value [4, 6] was 1.83.
